Experimental data: PubChem BioAssay AID1963970 (Molecular Pharmacology Branch, DTP, NCI, 2024)

Test system: 931267-113-T-J1-PDC multicell spheroid viability
Assay: Anticancer human tumor 931267-113-T-J1-PDC patient-derived colon adenocarcinoma cell line growth inhibition [PI3K]
Details: for IC50: curve of first compound; for viability, T/C: stronger effect = lower value; active = viability on the fitted dose curve at most 10% of control; inactive = the rest
Description: Combinatorial screen of targeted agents with the PI3K inhibitors inavolisib, alpelisib, duvelisib, and copanlisib in multi-cell type tumor spheroids
A high-throughput screen of multi-cell type tumor spheroids was designed to identify active combinations of targeted small molecules and PI3K pathway inhibitors. Complex spheroids include a stromal component modeled by human endothelial cells (HUVEC) and fibroblasts modeled by human mesenchymal stem cells (MSCs). The concentration ranges selected for each drug and investigational agent were based upon clinically achievable concentrations if the clinical Cmax of the agent was known.
Compounds. The drugs and investigational agents: inavolisib (NSC800729), alpelisib (NSC765974), duvelisib (NSC772469), copanlisib (NSC816437), ipatasertib (NSC767898), afuresertib (NSC778305), talazoparib (NSC767125), sapanisertib (NSC764658), selumetinib (NSC741078), tovorafenib (DAY101, NSC766906), vemurafenib (NSC761431), ravoxertinib (NSC781343), sotorasib (NSC818433), MRTX1133 (NSC 836407), abemaciclib (NSC 768073), palbociclib (NSC758247), venetoclax (NSC 766270), SY5609 (NSC837396), enzalutamide (NSC755605), and darolutamide (NSC825331), were obtained from the National Cancer Institute (NCI) Developmental Therapeutics Program Chemical Repository. The FDA-approved anticancer drug set is available from the NCI Developmental Therapeutics Program. […] The stock solutions were prepared in dimethyl sulfoxide (DMSO, Sigma-Aldrich, St. Louis, MO, cat. D2650) at 800-fold the tested concentration and stored at -70 degrees C prior to their use. All drugs and investigational agents were tested over a range starting from a high concentration at or near the clinical Cmax and decreasing in half-log increments. If the clinical Cmax for an agent had not been determined, the highest concentration tested was 10 microM.
Cell Culture. All cells were maintained in an incubator at 37 degrees C and 5% CO2 with 95% humidity. The PDC lines were cultured according to standard operating procedures established by the NCI PDMR (https://pdmr.cancer.gov/sops/default.htm). All PDCs were thawed and cultured in Matrigel-coated flasks prepared with a working solution of 1X Ham's F-12 nutrient mix, without supplementation (Invitrogen, Waltham, MA, cat. 11765054), 100 U/mL penicillin-streptomycin (Invitrogen, cat. 15140122), and 2.5% Matrigel (Corning Inc., Corning, NY, cat. 354248) for the first three passages. The 354836-022-R-J1-PDC, 475296-252-R-J1-PDC, and 997726-040-R-J2-PDC lines were cultured in 6A media, which includes advanced DMEM/F-12 (Thermo Fisher Scientific, cat. 12634028), 10 mM HEPES (Thermo Fisher Scientific, cat. 15630080), 1X GlutaMAX supplement (Thermo Fisher Scientific, cat. 35050061), 0.1 mg/mL primocin (InvivoGen, San Diego, CA, cat. ant-pm-2), 10% defined fetal bovine serum, heat inactivated (HyClone Laboratories Inc., Logan, UT, cat. SH30070.03HI), 50% L-WRN conditioned media (ATCC, cat. CRL-3276), 1.25 mM N-Acetyl-L-cysteine (Sigma-Aldrich, cat. A9165), 10 mM nicotinamide (Sigma-Aldrich, cat. N0636), 1X B-27 supplement (Thermo Fisher Scientific, cat. 17504044), 1X N-2 supplement (Thermo Fisher Scientific, cat. 17502048), and 10 microM Y-27632 dihydrochloride (Tocris Bioscience, Bristol, United Kingdom, cat. 1254). The 624824-186-R-J2-PDC line was cultured in 6C/Colon 1B media, which includes all 6A media components plus 50 ng/mL human EGF recombinant protein (Thermo Fisher Scientific, cat. PHG0311). […]

[1] = second compound 0.00316 µM, first compound 0.000316 µM
[2] = second compound 0.00316 µM, first compound 0.001 µM
[3] = second compound 0.00316 µM, first compound 0.00316 µM
[4] = second compound 0.00316 µM, first compound 0.01 µM
[5] = second compound 0.00316 µM, first compound 0.0316 µM
[6] = second compound 0.00316 µM, first compound 0.1 µM
[7] = second compound 0.01 µM, first compound 0.000316 µM
[8] = second compound 0.01 µM, first compound 0.001 µM
[9] = second compound 0.01 µM, first compound 0.00316 µM
[10] = second compound 0.01 µM, first compound 0.01 µM
[11] = second compound 0.01 µM, first compound 0.0316 µM
[12] = second compound 0.01 µM, first compound 0.1 µM
[13] = second compound 0.0316 µM, first compound 0.000316 µM
[14] = second compound 0.0316 µM, first compound 0.001 µM
[15] = second compound 0.0316 µM, first compound 0.00316 µM
[16] = second compound 0.0316 µM, first compound 0.01 µM
[17] = second compound 0.0316 µM, first compound 0.0316 µM
[18] = second compound 0.0316 µM, first compound 0.1 µM
[19] = second compound 0.1 µM, first compound 0.000316 µM
[20] = second compound 0.1 µM, first compound 0.001 µM
[21] = second compound 0.1 µM, first compound 0.00316 µM
[22] = second compound 0.1 µM, first compound 0.01 µM
[23] = second compound 0.1 µM, first compound 0.0316 µM
[24] = second compound 0.1 µM, first compound 0.1 µM
[25] = second compound 0.316 µM, first compound 0.000316 µM
[26] = second compound 0.316 µM, first compound 0.001 µM
[27] = second compound 0.316 µM, first compound 0.00316 µM
[28] = second compound 0.316 µM, first compound 0.01 µM
[29] = second compound 0.316 µM, first compound 0.0316 µM
[30] = second compound 0.316 µM, first compound 0.1 µM
[31] = second compound 1 µM, first compound 0.000316 µM
[32] = second compound 1 µM, first compound 0.001 µM
[33] = second compound 1 µM, first compound 0.00316 µM
[34] = second compound 1 µM, first compound 0.01 µM
[35] = second compound 1 µM, first compound 0.0316 µM
[36] = second compound 1 µM, first compound 0.1 µM
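Note: viability read 7 days after compound addition.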

CC(=O)c1c(C)c2cnc(Nc3ccc(N4CCNCC4)cn3)nc2n(C2CCCC2)c1=O + CC(Nc1ccc2c(c1)OCCn1cc(N3C(=O)OCC3C(F)F)nc1-2)C(N)=O
> 100 nM: IC50 (second compound 0.00316 µM) | IC50 (second compound 0.01 µM) | IC50 (second compound 0.0316 µM) | IC50 (second compound 0.1 µM) | IC50 (second compound 0.316 µM) | IC50 (second compound 1 µM)
inactive: viability, T/C [1] 104% | viability, T/C [2] 110% | viability, T/C [3] 95.1% | viability, T/C [4] 111% | viability, T/C [5] 105% | viability, T/C [6] 99.8% | viability, T/C [7] 111% | viability, T/C [8] 101% | viability, T/C [9] 98.7% | viability, T/C [10] 93.3% | viability, T/C [11] 108% | viability, T/C [12] 105% | viability, T/C [13] 108% | viability, T/C [14] 93.5% | viability, T/C [15] 91.9% | viability, T/C [16] 106% | viability, T/C [17] 110% | viability, T/C [18] 95.4% | viability, T/C [19] 100% | viability, T/C [20] 97.7% | viability, T/C [21] 92.7% | viability, T/C [22] 87.1% | viability, T/C [23] 105% | viability, T/C [24] 87.8% | viability, T/C [25] 92.1% | viability, T/C [26] 88.1% | viability, T/C [27] 81% | viability, T/C [28] 85.7% | viability, T/C [29] 91.6% | viability, T/C [30] 82.2% | viability, T/C [31] 75.9% | viability, T/C [32] 74% | viability, T/C [33] 77.8% | viability, T/C [34] 70.5% | viability, T/C [35] 80.1% | viability, T/C [36] 66.3%

CC(C)n1nc(-c2ccc3oc(N)nc3c2)c2c(N)ncnc21 + CC(Nc1ccc2c(c1)OCCn1cc(N3C(=O)OCC3C(F)F)nc1-2)C(N)=O
80.1 nM: IC50 (second compound 0.00316 µM)
66.6 nM: IC50 (second compound 0.0316 µM)
48.7 nM: IC50 (second compound 0.316 µM)
> 100 nM: IC50 (second compound 0.01 µM)
inactive: viability, T/C [1] 94.6% | viability, T/C [2] 98% | viability, T/C [3] 83% | viability, T/C [4] 91.5% | viability, T/C [5] 80.2% | viability, T/C [6] 42.5% | viability, T/C [7] 104% | viability, T/C [8] 101% | viability, T/C [9] 86% | viability, T/C [10] 81.1% | viability, T/C [11] 68% | viability, T/C [12] 52.2% | viability, T/C [13] 97.7% | viability, T/C [14] 104% | viability, T/C [15] 101% | viability, T/C [16] 90% | viability, T/C [17] 71% | viability, T/C [18] 38.8% | viability, T/C [19] 89.4% | viability, T/C [20] 83.8% | viability, T/C [21] 93% | viability, T/C [22] 77.7% | viability, T/C [23] 64.1% | viability, T/C [24] 39.6% | viability, T/C [25] 82.7% | viability, T/C [26] 82.7% | viability, T/C [27] 69% | viability, T/C [28] 70.8% | viability, T/C [29] 59.2% | viability, T/C [30] 36.7% | viability, T/C [31] 72.5% | viability, T/C [32] 69.3% | viability, T/C [33] 70.6% | viability, T/C [34] 59% | viability, T/C [35] 55.9% | viability, T/C [36] 31.8%
60.7 nM: IC50 (second compound 0.1 µM)
37.7 nM: IC50 (second compound 1 µM)

CCCS(=O)(=O)Nc1ccc(F)c(C(=O)c2c[nH]c3ncc(-c4ccc(Cl)cc4)cc23)c1F + CC(Nc1ccc2c(c1)OCCn1cc(N3C(=O)OCC3C(F)F)nc1-2)C(N)=O
inactive: viability, T/C [5] 95.6% | viability, T/C [6] 105% | viability, T/C (second compound 0.00316 µM, first compound 0.316 µM) 125% | viability, T/C (second compound 0.00316 µM, first compound 1 µM) 117% | viability, T/C (second compound 0.00316 µM, first compound 3.16 µM) 120% | viability, T/C [11] 113% | viability, T/C [12] 118% | viability, T/C (second compound 0.01 µM, first compound 0.316 µM) 121% | viability, T/C (second compound 0.01 µM, first compound 1 µM) 125% | viability, T/C (second compound 0.01 µM, first compound 3.16 µM) 132% | viability, T/C [17] 105% | viability, T/C [18] 103% | viability, T/C (second compound 0.0316 µM, first compound 0.316 µM) 110% | viability, T/C (second compound 0.0316 µM, first compound 1 µM) 119% | viability, T/C (second compound 0.0316 µM, first compound 3.16 µM) 114% | viability, T/C [23] 91.9% | viability, T/C [24] 81.2% | viability, T/C (second compound 0.1 µM, first compound 0.316 µM) 102% | viability, T/C (second compound 0.1 µM, first compound 1 µM) 107% | viability, T/C (second compound 0.1 µM, first compound 3.16 µM) 111% | viability, T/C [29] 82.3% | viability, T/C [30] 86.5% | viability, T/C (second compound 0.316 µM, first compound 0.316 µM) 87.9% | viability, T/C (second compound 0.316 µM, first compound 1 µM) 99.2% | viability, T/C (second compound 0.316 µM, first compound 3.16 µM) 78.9% | viability, T/C [35] 75.5% | viability, T/C [36] 75.4% | viability, T/C (second compound 1 µM, first compound 0.316 µM) 76.3% | viability, T/C (second compound 1 µM, first compound 1 µM) 61.3% | viability, T/C (second compound 1 µM, first compound 3.16 µM) 74.7%
5730 nM: IC50 (second compound 0.1 µM)
6340 nM: IC50 (second compound 0.01 µM)
active: viability, T/C (second compound 0.00316 µM, first compound 10 µM) 2.95% | viability, T/C (second compound 0.01 µM, first compound 10 µM) 3.03% | viability, T/C (second compound 0.0316 µM, first compound 10 µM) 3.59% | viability, T/C (second compound 0.1 µM, first compound 10 µM) 4.35% | viability, T/C (second compound 0.316 µM, first compound 10 µM) 2.7% | viability, T/C (second compound 1 µM, first compound 10 µM) 2.07%
4890 nM: IC50 (second compound 0.316 µM)
6110 nM: IC50 (second compound 0.00316 µM)
6060 nM: IC50 (second compound 0.0316 µM)
4580 nM: IC50 (second compound 1 µM)
